Laboratory results taken from US4543408A, “Stable S-adenosylmethionine salts, the process for their preparation, and therapeutic compositions which contain them as active principle” (Bioresearch S.p.A., priority 1981, dated 1985).

Assays:
Residual moisture = format: physicochemical
[1] = format: physicochemical; details: solid salt storage; for degradation at 45° C. after 60 days: 1440 h; for degradation at 45° C. after 120 days: 2880 h; for degradation at 45° C. after 180 days: 4320 h; for degradation at 45° C. after 240 days: 5760 h; for degradation at 45° C. after 360 days: 8640 h
Protocol: Stability tests were carried out on the salts prepared in the described manner, by keeping the product in an oven temperature controlled at 45° C. and determining the percentage of residual salt at fixed times. The tests were carried out in comparison with SAM.nHCl salts in which n=1,2 and 3, prepared by the known method (U.S. Pat. No. 2,969,353), and in comparison with SAM.nH2 SO4 salts in which n=0.5,1 and 1.5, also prepared by the known method (West German patent application No. 1,803,978).
The following tables show the percentages of decomposed salt at the times indicated:
Analytical conditions used:
SAM retention time: about 400 seconds.

physchem = details: water
[2] = Wide pharmacological screening trial; format: in vivo; details: independent of the anion bonded to the SAM
Source text: It was established that the activity of the new salts depends substantially on the capacity of the SAM^+ ion released in the organism to act as a donor of methyl groups, as the natural substrate of a large number of transmethylase enzymes which catalyse fundamental reactions of the lipid, protide and glucide metabolism.

[3] = prior-art salts; cited from earlier work
[4] = Tables 1-4, salts lyophilised without support

SMILES | residual moisture (Residual moisture; [4]) [%] | degradation at 45° C. after 60 days [1] [%] | degradation at 45° C. after 120 days [1] [%] | degradation at 45° C. after 180 days [1] [%] | degradation at 45° C. after 240 days [1] [%] | degradation at 45° C. after 360 days [1] [%] | also measured
C[S+](CCC(N)C(=O)[O-])CC1OC(n2cnc3c(N)ncnc32)C(O)C1O (stereo not drawn) [SAM.1.5H2 SO4.nHCl, n=1] | 1 | 5 | 10 | 14 | 17 | 20 | 
C[S+](CCC(N)C(=O)[O-])CC1OC(n2cnc3c(N)ncnc32)C(O)C1O (stereo not drawn) [SAM.1.5H2 SO4.nHCl, n=2] | 1.5 |  | 1.5 | 3 | 4.5 | 5 | residual moisture (Residual moisture; Tables 1-4, salts lyophilised without support, listed as SAM.2HCl.nH2 SO4, n=1.5): 1.5%
C[S+](CCC(N)C(=O)[O-])CC1OC(n2cnc3c(N)ncnc32)C(O)C1O (stereo not drawn) [SAM.1.5H2 SO4.nHCl, n=3] | 2 | 5 | 10 | 14 | 17 | 20 | 
C[S+](CCC(N)C(=O)[O-])CC1OC(n2cnc3c(N)ncnc32)C(O)C1O (stereo not drawn) [SAM.2.5H2 SO4] |  |  | 1.5 | 3 | 4.5 | 5 | residual moisture (Residual moisture; Tables 1-4, salts lyophilised without support, listed as SAM.nH2 SO4, n=3.5): 1.5%; solubility (physchem): > 200 mg/mL
C[S+](CCC(N)C(=O)[O-])CC1OC(n2cnc3c(N)ncnc32)C(O)C1O (stereo not drawn) [SAM.2H2 SO4.0.4H2 O] |  | 5 | 10 | 14 | 17 | 20 | residual moisture (Residual moisture; Tables 1-4, salts lyophilised without support, listed as SAM.nH2 SO4, n=2): 1%
C[S+](CCC(N)C(=O)[O-])CC1OC(n2cnc3c(N)ncnc32)C(O)C1O (stereo not drawn) [SAM.2HCl.nH2 SO4, n=0.5, reference compound] | 0.8 | 30 | 60 | 80 | 100 | 100 | 
C[S+](CCC(N)C(=O)[O-])CC1OC(n2cnc3c(N)ncnc32)C(O)C1O (stereo not drawn) [SAM.2HCl.nH2 SO4, n=1] | 1 | 5 | 10 | 14 | 17 | 20 | 
C[S+](CCC(N)C(=O)[O-])CC1OC(n2cnc3c(N)ncnc32)C(O)C1O (stereo not drawn) [SAM.2HCl.nH2 SO4, n=2] | 2 | 5 | 10 | 14 | 17 | 20 | 
C[S+](CCC(N)C(=O)[O-])CC1OC(n2cnc3c(N)ncnc32)C(O)C1O (stereo not drawn) [SAM.3H2 SO4.0.7H2 O] |  | 5 | 10 | 14 | 17 | 20 | residual moisture (Residual moisture; Tables 1-4, salts lyophilised without support, listed as SAM.nH2 SO4, n=3): 2%
C[S+](CCC(N)C(=O)[O-])CC1OC(n2cnc3c(N)ncnc32)C(O)C1O (stereo not drawn) [SAM.4HCl.0.4H2 O] |  | 5 | 10 | 14 | 17 | 20 | residual moisture (Residual moisture; Tables 1-4, salts lyophilised without support, listed as SAM.nHCl, n=4): 1%
C[S+](CCC(N)C(=O)[O-])CC1OC(n2cnc3c(N)ncnc32)C(O)C1O (stereo not drawn) [SAM.5HCl] |  |  | 1.5 | 3 | 4.5 | 5 | residual moisture (Residual moisture; Tables 1-4, salts lyophilised without support, listed as SAM.nHCl, n=5): 1.5%; residual moisture (Residual moisture; lyophilised without support, with mannitol or with Aerosil): 1.5%; activity and toxicity characteristics [2]: highly interesting activity and toxicity characteristics
C[S+](CCC(N)C(=O)[O-])CC1OC(n2cnc3c(N)ncnc32)C(O)C1O (stereo not drawn) [SAM.6HCl.0.7H2 O] |  | 5 | 10 | 14 | 17 | 20 | residual moisture (Residual moisture; Tables 1-4, salts lyophilised without support, listed as SAM.nHCl, n=6): 2%
C[S+](CCC(N)C(=O)[O-])CC1OC(n2cnc3c(N)ncnc32)C(O)C1O (stereo not drawn) [SAM.nH2 SO4, n=0.5, reference compound] | 0.2 | 100 | 100 | 100 | 100 | 100 | 
C[S+](CCC(N)C(=O)[O-])CC1OC(n2cnc3c(N)ncnc32)C(O)C1O (stereo not drawn) [SAM.nH2 SO4, n=1, reference compound] | 0.5 | 80 | 100 | 100 | 100 | 100 | 
C[S+](CCC(N)C(=O)[O-])CC1OC(n2cnc3c(N)ncnc32)C(O)C1O (stereo not drawn) [SAM.nH2 SO4, n=1.5, reference compound] | 0.8 | 30 | 60 | 80 | 100 | 100 | 
C[S+](CCC(N)C(=O)[O-])CC1OC(n2cnc3c(N)ncnc32)C(O)C1O (stereo not drawn) [SAM.nHCl, n=1, reference compound] | 0.2 | 100 | 100 | 100 | 100 | 100 | 
C[S+](CCC(N)C(=O)[O-])CC1OC(n2cnc3c(N)ncnc32)C(O)C1O (stereo not drawn) [SAM.nHCl, n=2, reference compound] | 0.5 | 80 | 100 | 100 | 100 | 100 | 
C[S+](CCC(N)C(=O)[O-])CC1OC(n2cnc3c(N)ncnc32)C(O)C1O (stereo not drawn) [SAM.nHCl, n=3, reference compound] | 0.8 | 30 | 60 | 80 | 100 | 100 | 
C[S+](CCC(N)C(=O)[O-])CC1OC(n2cnc3c(N)ncnc32)C(O)C1O (stereo not drawn) [disulphatediparatoluene sulphonate, SAM disulphatediparatoluene sulphonate] |  |  |  |  |  |  | temperature up to which the salt is stable [3]: up to 45 °C
C[S+](CCC(N)C(=O)[O-])CC1OC(n2cnc3c(N)ncnc32)C(O)C1O (stereo not drawn) [triparatoluene sulphonate, SAM triparatoluene sulphonate] |  |  |  |  |  |  | temperature up to which the salt is stable [3]: up to 25 °C
